Measured values: patent publication US20030166631A1, “Pharmaceutical compositions and methods for administering EP2 receptor selective agonists” (priority 2001, published 2003)

Experiments:
[1] = test system: dogs; conditions: local infusion for 3 weeks, 500 to 2000 μg per week; cited from earlier work
[2] = test system: adult beagles; conditions: 0.2 mg in 0.5 ml injected into fracture sites twice a day for 10 days; cited from earlier work
[3] = test system: beagles; conditions: 0.2 mg/kg in 10% ethanol into defect site twice a day for 10 days; cited from earlier work
[4] = test system: Male Sprague-Dawley rats; test: Rat periosteal injection model (local injection onto femur subperiosteum); assay type: in vivo; conditions: for BMC: right femur, DEXA
Procedure: Male Sprague-Dawley rats at 3 weeks of age were used. The rats were anesthetized with isoflurane inhalation (2-3 minutes) in a conduction chamber located in a fume hood. The right hindlimb of each rat was shaved and cleaned. A 26 G needle attached with a hamilton syringe pre-filled with testing solution was used for the local injection. The solution was injected onto the subperiosteum of the anterior, mid-diaphyseal region of the femur in a volume of 5 to 10 ul for various days. On day 15, the rats were sacrificed and the femurs were collected for analysis. Periosteal bone induction was assessed by using radiography, dual-energy X-ray absorptiometry (DEXA) and/or peripheral quantitative computed tomography (pQCT), and histomorphometry. (Michael E, Joyce, Anita B. Roberts, Michael B. Sporn, and Mark Bolander, “Transforming growth factor-β and the initiation of chondrogenesis and osteogenesis in the rat femur,” The Journal of Cell Biology 110:2195-2207 (1990)).
The right femurs of male Spray-Dawley rats were injected with either vehicle or test compound for 1, 3, 7, and 14 days, respectively. The solution was prepared using 2% glycine as vehicle at pH of approximately 7.8-7.9. All rats were sacrificed on day 15 and the right femurs were collected for analysis. […] The test compound was (3-(((4-tert-butyl-benzyl)-(pyridine-3-sulfonyl)-amino)-methyl)-phenoxy)-acetic acid, sodium salt;
The right femur of each rat was injected with test compound for 3, 7 and 14 days, respectively. The left femur of each rat was injected with vehicle to serve as its own control. The solution was prepared using 2% glycine as vehicle at pH of approximately 7.8-7.9. Drug concentration was 80 mg/ml. The injected volume was 5 μl/rat/d (0.4 mg/rat/d). All rats were sacrificed on day 15 and both right and left femurs were collected for analysis. […] The test compound was 7-{[2-(3,5-dichloro-phenoxy)-ethyl]-methanesulfonyl-amino}-heptanoic acid.

[5] = test system: beagle male dogs; test: Ulnar segmental defect model, enhancement of bone healing in dog; assay type: in vivo
Procedure: It is clinically complex to heal segmental bone loss and non-union after fractures or reconstructive surgery. […] The following is a description of the ulnar segmental defect model used to evaluate bone healing in 11±1 kg beagle male dogs, 13 months old.
Beagle dogs were treated with antiparasitics one week before surgery and were given two doses of Baypamun (Bayer), 72 and 24 hours before the operation. Dogs were divided into four groups of eight animals.
Group A: 2 ml of phosphate buffered saline (PBS) was injected into the defect area filled with two helistat pre-cut sponges ([…]; 2.5×5 cm) 24, 48 and 72 hours following surgery.
Group B: 100 mg preparation of test compound was injected into the defect area filled with two helistat pre-cut sponges ([…]; 2.5×5 cm) 24 hours following surgery and for three consecutive days (24, 48 and 72 hours).
Group C: 100 mg preparation of test compound was injected into the defect area filled with two helistat pre-cut sponges ([…]; 2.5×5 cm) beginning 24 hours following surgery and daily thereafter for seven consecutive days.
Group D: 100 mg preparation of test compound was injected into the defect area filled with two helistat pre-cut sponges ([…]; 2.5×5 cm) 24 hours following surgery and daily thereafter for 14 days.
With animals under general anesthesia, the foreleg was prepped and draped in sterile fashion. A lateral incision approximately 10 cm in length was made and the ulna was exposed extraperiostally. Periosteum was cut and moved to the proximal and distal parts of the incision. Then 1.5 cm segmental defect was made in the midulna using a pendular saw. The radius and the remaining interosseal membrane were left intact. The defect site was irrigated with saline to remove bone debris. […] Both created bone ends were firmly stable and the radius served as a weight-bearing bone during the recovery process.
The site was then filled with the two helistat sponges as described above. In particular two Helistat sponges sized 2.5 times 5 cm were rolled to form a cylinder which was secured outside with fibrin net and two resorbable sutures. In that way subsequent dermal injections had larger areas of absorption. The soft tissues were meticulously closed in layers to aid the sponges. Injections were administered via dermal suture markers in such a way that the needle reached the opposing radius and then pulled back for approximately 5 mm. The total volume per injection was 2 ml consisting either of vehicle (PBS) or test compound in PBS. Following surgery animals were allowed full weight-bearing activity, water and food ad libitum. Radiographs of the forelimbs were obtained immediately following surgery and every two weeks thereafter until the termination of the study. Radiographs were graded on a 0 to 6 scale (Table A).
Dogs were sacrificed 12 weeks following surgery and the ulna was carefully dissected and fixed in 10% buffered formalin for histological analysis. As expected none of the control dogs re-bridged the defect confirming that the defect was a critical sized defect (Table B). Moreover, the non-union was pronounced permanent at the termination of the study since no significant progress in radiographs was observed between four and twelve weeks following surgery. In the 3-injections groups, none of the defects were re-bridged at the termination of the study. […] Radiographic scoring indicated a score between 2 and three for the dogs in this group.

[6] = test system: metaphysis of the left tibia; conditions: daily intraosseous injections for 14 days; cited from earlier work
[7] = 14-injections group, eight dogs
[8] = Group D: 100 mg daily for 14 days, 12 weeks after surgery

Compound: CCCCC[C@H](O)/C=C/[C@H]1[C@H](O)CC(=O)[C@@H]1CCCCCCC(=O)O [PGE1, prostaglandin E1]
- alveolar bone formation in the mandible [1]: produced a dramatic, localized formation of alveolar bone
- bone matrix formation at fracture site [2]: induced bone matrix formation on the periosteal envelope
- periosteal and cortical endosteal bone formation [3]: more periosteal and cortical endosteal bone formation

Compound: CS(=O)(=O)N(CCCCCCC(=O)O)CCOc1cc(Cl)cc(Cl)c1 [7-{[2-(3,5-dichloro-phenoxy)-ethyl]-methanesulfonyl-amino}-heptanoic acid]
- local bone formation by radiography ([4]; 3-day treatment, eight femurs, 80 mg/ml, 5 μl/rat/d (0.4 mg/rat/d), left femur vehicle control): did not show evidence for increase bone formation locally
- femurs showing increased calcified area by radiography ([4]; 7-day treatment, 80 mg/ml, 5 μl/rat/d (0.4 mg/rat/d), left femur vehicle control): Two out of eight
- femurs showing increased calcified area locally compared to controls by radiography ([4]; 14-day treatment, 80 mg/ml, 5 μl/rat/d (0.4 mg/rat/d), left femur vehicle control): All femurs (n=8)

Compound: CC(C)(C)c1ccc(CN(Cc2cccc(OCC(=O)[O-])c2)S(=O)(=O)c2cccnc2)cc1.[Na+] [CP, (3-(((4-tert-butyl-benzyl)-(pyridine-3-sulfonyl)-amino)-methyl)-phenoxy)-acetic acid, sodium salt]
- BMC ([4]; 1 day of dosing, sacrifice day 15): 0.0469 ± 0.0030 g
- BMC ([4]; 3 days of dosing, sacrifice day 15): 0.0446 ± 0.0064 g
- BMC ([4]; 7 days of dosing, sacrifice day 15): 0.0485 ± 0.0054 g
- BMC ([4]; 14 days of dosing, sacrifice day 15): 0.0533 ± 0.0044 g
- excess calcified mass on anterior aspect of right femur, radiography ([4]; 14 days of treatment, sacrifice day 15): became significant
- excess calcified mass on anterior aspect of right femur, radiography ([4]; injected for 7 days, sacrifice day 15): started to show excess calcified mass
- periosteal bone formation ([4]; one- or three-day treatment, sacrifice day 15): did not result in periosteal bone formation
- defined region bone area and bone mineral content (BMC) by DEXA compared to vehicle ([4]; vs vehicle-treated rats (Table I)): significantly increased
- defects re-bridged at termination of the study ([5]; 3-injections group): none
- histological analysis of newly formed bone ([5]; 3-injections group): complete mineralization of the newly formed bone
- new bone induction (osteoconduction and periosteal reaction) ([5]; 3-injections group): observed in all the dogs
- bone formation in the defect area ([5]; 7-injections group): Both endosteal and periosteal bone formation was observed
- dogs showing full re-bridgement ([5]; 7-injections group): none
- histological analysis of newly formed bone ([5]; 7-injections group): fully mineralized
- dogs showing full re-bridgement by x-rays and histology ([5]; 14-injections group): two of the eight
- dogs with large amount of new bone formation in defect area but defect not completely filled [5, 7]: Three other dogs
- dogs with relatively less bone formation, pronounced non-responders [5, 7]: Three dogs
- Bridging/8 dogs ([5]; Group B: 100 mg, 3 injections, 12 weeks after surgery): 0/8
- Bridging/8 dogs (medial healing) ([5]; Group C: 100 mg daily for 7 days, 12 weeks after surgery): 1/8 showed medial healing
- Radiographic Grading/8 dogs ([5]; Group D: 100 mg daily for 14 days, 0 to 6 scale): 4-6
- Bridging/8 dogs (good bridging) [5, 8]: 4/8
- dogs showing almost complete healing [5, 8]: Three

Compound: CCCCC[C@H](O)/C=C/[C@H]1[C@H](O)CC(=O)[C@@H]1C/C=C\CCCC(=O)O [PGE2, Prostaglandin E2]
- trabecular bone in the metaphysis [6]: significant increase of trabecular bone
